According to patent US4041038A, “1-(3-Phenylpropyl)-4-(beta-alkoxyacryloyl)piperazine derivatives” (Kyorin Pharmaceutical Co., Ltd., priority 1975, dated 1977):

Experiments:
[1] = 50% anesthetic dose in rats (i.v.); type: in vivo, rat; details: for selectivity ratio: in vivo, read-out: LD50/AD50; for selectivity ratio / ED50: iv, rat, i.v.; for ED50: read-out: AD50 (50% anesthetic dose)
From the text: (§1) The compounds included in this invention are useful as general anesthetics.

[2] = 50% anesthetic dose in mice (i.v.); type: in vivo, mouse; details: for selectivity ratio: in vivo, read-out: LD50/AD50; for selectivity ratio / ED50: iv, mouse, i.v.; for ED50: read-out: AD50 (50% anesthetic dose)
From the text: as §1

[3] = system: extension of hind legs; assay: reflex against extension of hind legs / muscular relaxation in rabbits; type: in vivo, rabbit; details: for muscular relaxant activity / muscular rigidity: same doses for KA-100 and thiopental-Na
Procedure: (§2) Thiopental-Na caused an anesthesia lasted for 13 min. after injection of 20 mg/kg and 30 min. after 30 mg/kg.

[4] = anesthesia, sleeping time and post-anesthetic recovery in rabbits (i.v.); type: in vivo, rabbit
Procedure: In rabbits, KA-100 caused an anesthesia at the doses of more than 10 mg/kg (i.v.), and the sleeping times at 20 and 30 mg/kg were 20 min. and more than 20 min. respectively.
as §2

[5] = 50% lethal dose in mice (i.v.); details: in vivo, iv, mouse
From the text: as §1

[6] = system: withdrawal reflex against nociceptive stimuli; assay: withdrawal reflex against nociceptive stimuli (pinching of hind leg toes, small incision of abdomen) in rabbits; type: in vivo, rabbit; details: for anti-nociceptive activity: same doses for KA-100 and thiopental-Na
Procedure: as §2

[7] = 50% lethal dose in rats (i.v.); details: in vivo, iv, rat
From the text: as §1

[8] = disturbance of blood vessels; details: maleate
[9] = solubility in water; type: physicochemical; details: maleate, nearly physiological pH (pH 6)

SMILES | selectivity ratio [1] | ED50 [1] | selectivity ratio [2] | ED50 [2] | muscular relaxant activity / muscular rigidity [3] | sleeping time / duration of anesthesia ([4]; 20 mg/kg) | sleeping time / duration of anesthesia ([4]; 30 mg/kg) | LD50 [5] | anti-nociceptive activity [6] | LD50 [7] | disturbance of blood vessels [8] | anesthetic effect ([1]; rats) | anesthetic effect ([2]; mice) | solubility in water [9] | reflex against extension of hind legs ([3]; more than 20 mg/kg) | anesthetic effect [4] | pharmacological potency ([4]; KA-100 and thiopental-Na compared) | minimal effective dose ([4]; Oryctolagus cuniculus, iv, read-out: doses that caused an anesthesia) | recovery from ataxic state in post-anesthetic period ([4]; compared with thiopental-Na) | withdrawal reflex against nociceptive stimuli ([6]; more than 20 mg/kg)
CCCC(C)C1(CC)C(=O)NC(=S)NC1=O (stereo not drawn) [Thiopental-Na, reference compound] | 7.5 | 10.7 mg/kg | 4.3 | 20.9 mg/kg | induced muscular rigidity | 13 min | 30 min | 90.9 mg/kg | no anti-nociceptive effect | 80.3 mg/kg |  |  |  |  |  |  |  |  |  | 
CCOC=CC(=O)N1C[C@H](C)N(CCCc2ccccc2)C[C@H]1C.O=C(O)/C=C\C(=O)O (relative stereo) [KA-100, trans-1-(3-phenylpropyl)-2,5-dimethyl-4-(β-ethoxyacryloyl)piperazine maleate] | 12.6 | 4.8 mg/kg | 4.9 | 7.6 mg/kg | muscular relaxant activity | 20 min | more than 20 min. | 37.3 mg/kg | anti-nociceptive | 60.2 mg/kg | does not disturb blood vessels | good anesthetic effect | good anesthetic effect | soluble in water | lost the withdrawal reflex against nociceptive stimuli (pinching of hind leg toes by a forceps or small incision of abdomen) and against extension of hind legs | good anesthetic effect | practically equal | > 10 mg/kg | far more rapid | lost the withdrawal reflex against nociceptive stimuli
